Test [1] addresses T1, CCK (gallbladder) receptor (Cavia porcellus, UniProt Q63931).
T1 construct: Isolated, strip preparations were prepared from gall-bladders removed from male Dunkin-Hartley guinea-pigs; from tissue; host or cells: guinea-pig gall-bladder strips
T1 sequence (Q63931 1-430): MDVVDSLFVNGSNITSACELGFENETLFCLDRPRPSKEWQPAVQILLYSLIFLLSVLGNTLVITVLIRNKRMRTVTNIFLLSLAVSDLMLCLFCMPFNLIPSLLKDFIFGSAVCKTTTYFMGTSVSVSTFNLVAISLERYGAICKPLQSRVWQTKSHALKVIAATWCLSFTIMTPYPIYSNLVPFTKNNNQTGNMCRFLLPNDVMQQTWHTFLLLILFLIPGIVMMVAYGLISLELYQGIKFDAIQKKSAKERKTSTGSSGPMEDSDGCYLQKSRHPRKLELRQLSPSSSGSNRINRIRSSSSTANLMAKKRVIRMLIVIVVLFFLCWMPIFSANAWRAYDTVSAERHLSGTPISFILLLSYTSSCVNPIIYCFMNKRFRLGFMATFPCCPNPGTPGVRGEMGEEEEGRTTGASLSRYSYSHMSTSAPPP
Put plainly: CCK-receptor bioassay, isolated guinea-pig gall-bladder strip preparations, CCK-8 as agonist. In kind it is cell-based, male Dunkin-Hartley guinea-pigs. The following applies: negative log10 of equilibrium dissociation constant; guinea-pig gall-bladder strips; CCK-8 agonist; test compound incubated for 60 minutes; 37° C; read-out: pKB versus CCK (gallbladder) (converted). On the procedure: The compounds of the examples were assayed using a CCK-receptor bioassay as follows:
Isolated, strip preparations were prepared from gall-bladders removed from male Dunkin-Hartley guinea-pigs (250-500 g body weight) according to the method of La Morte, W. W., et al., J.P.E.T., 217, (3), 638-644 (1981).
The complete gall-bladder is removed and opened along the longitudinal axis. Strips measuring 3 mm in the longitudinal axis and 1 mm in the transverse axis are cut and then tied with cotton to stainless steel wires. The preparation is connected to a GRASS FTO3 isometric transducer under an initial loading tension of 1 g and is immersed in 20 mls of Krebs solution maintained at 37° C. and gassed with 95% O2 /5% CO2. The Krebs solution is as detailed above in connection with the fundus assay, except that the Ca^2+ concentration is decreased to 0.5 mM. After 30 mins the preparation is washed. Drug addition begins after an initial 90 min stabilisation period. Responses are measured as changes in tension from that immediately prior to any drug addition. Single cumulative agonist concentration-effect curves, using CCK-8 as agonist, are obtained on each preparation in the absence and presence of test compound which has been incubated for 60 minutes. The antagonist activity of the test compound is estimated and expressed as the negative logarithm (base 10) of the equilibrium dissociation constants (pKB) using the modifications of standard competitive analysis described by Black et al., Br. J. Pharmacol.,86,571-579, (1985) and Shankley et al., Br. J. Pharmacol.,94,264-274 (1988).

The next test concerns the target T2, CCKA (Cavia porcellus, UniProt Q63931).
T2 construct: The pancreatata were removed from male guinea-pigs (200-300 g; Dunkin Hartley); from tissue; host or cells: guinea-pig pancreas membranes
T2 sequence (Q63931 1-430): T1 sequence (Q63931 1-430)
The test can be described thus: CCKA binding assay, pancreas membranes, [125I]-CCK8(S). Set-up: species or system male guinea-pigs (Dunkin Hartley). The following applies: guinea-pig pancreas membranes; [125I]-CCK8(S) 200 pM; 0.375 μM PD134,308; 150 minutes at 21°; non-specific binding 100 nM L-364,718; read-out: pKi CCKλ (converted). The method, then:
The compounds of the examples were also tested in a CCKA binding assay as follows:
The pancreatata were removed from male guinea-pigs (200-300 g; Dunkin Hartley) and placed in ice-cold HEPES buffer (pH 7.2@21°±3°). The pancreatata were homogenised in 40 ml ice-cold HEPES buffer using a polytron (Brinkmann, PT10, setting 10) 4×1 second. The homogenate was centrifuged at 39,800 g for 15 min at 4°. The supernatant was discarded and the pellet re-suspended using a Teflon-in-glass homogeniser in 20 volumes of fresh buffer and re-centrifuged as above. The final pellet was re-suspended using a Teflon-in-glass homogeniser to a tissue concentration of 1 mg ml^31 1 (original wet weight), and filtered through 500 μm pore-size Nytex mesh.
The membranes (400 μl; containing 0.375 μM PD134,308) are incubated for 150 minutes at 21°±3° in a final volume of 0.5 ml with HEPES buffer containing [^125 I]--CCK8 (S) (50 μl; 200 pM) and competing compound. Total and non-specific binding of [^125 I]--CCK8 (S) are defined using 50 μl of buffer and 50 μl of 100 nM L-364,718 respectively. The assay is terminated by rapid filtration through pre-soaked Whatman GF/B filters using a Brandell Cell Harvester. The filters were washed (3×3 ml) with ice-cold 50 mM Tris HCl (pH 7.4 at 4°) and bound radioactivity is determined by counting (1 min) in a gamma counter.

A further test deals with T3, CCKB receptor (Mus musculus, UniProt P56481).
T3 construct: CCKB receptor in mouse cortical membranes; from tissue; host or cells: mouse cerebral cortex membranes (male mice, Charles River)
T3 sequence (P56481 1-453): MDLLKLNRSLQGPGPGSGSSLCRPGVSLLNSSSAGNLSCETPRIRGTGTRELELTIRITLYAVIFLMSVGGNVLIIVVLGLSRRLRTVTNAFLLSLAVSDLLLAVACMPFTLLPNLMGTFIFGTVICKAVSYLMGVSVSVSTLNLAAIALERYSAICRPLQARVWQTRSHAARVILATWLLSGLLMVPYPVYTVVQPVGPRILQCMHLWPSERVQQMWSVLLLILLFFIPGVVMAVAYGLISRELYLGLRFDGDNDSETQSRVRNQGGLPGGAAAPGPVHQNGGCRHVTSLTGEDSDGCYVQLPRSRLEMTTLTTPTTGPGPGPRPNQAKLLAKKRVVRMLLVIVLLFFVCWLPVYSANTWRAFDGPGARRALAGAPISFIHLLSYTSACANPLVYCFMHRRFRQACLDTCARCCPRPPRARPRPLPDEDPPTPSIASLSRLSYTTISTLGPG
Put plainly: CCKB radioligand binding assay in mouse cortical membranes, [125I] CCK-8S (selectivity testing). Set-up: species or system male mice. As to conditions: [125I] CCK-8S 200 pM, 150 min at 21°, pH 7.2, non-specific binding L-365,260, read-out: pKi CCKB (converted). The method, then: The compounds were assayed for selectivity with respect to the CCKB receptor in mouse cortical membranes by means of a radioligand binding assay. The procedure was as follows:
The whole brains from male mice (CDI 22-25 g; Charles River) were removed and placed in ice-cold buffer (pH 7.2 at 21°±3° C.) of the following composition (mM); 10 HEPES, 130 NaCl, 4.7 KCl, 5 MgCl2, 1 EDTA and containing 0.25 g. 1^-1 bacitracin.
The cortex was dissected, weighed and homogenised in 40 ml ice-cold buffer using a Teflon-in-glass homogeniser. The homogenate was centrifuged at 39,800 g for 20 min at 4° C., the supernatant discarded and the pellet resuspended by homogenisation in fresh buffer. The homogenate was recentrifuged (39,800 g; 20 min at 4° C.) and the final pellet was resuspended in HEPES buffer to give a tissue concentration of 2 mg ml^-1 (original wet weight).
The membranes (400 μl) were incubated for 150 min at 21°±3° C. in a final volume of 0.5 ml with HEPES buffer containing [^125 I] CCK-8S (0.05 ml; 200 pM NEN 2200Ci.mmol^-1) and competing compound. Total and non-specific binding of [^125 I] CCK-8S were defined using 0.05 ml of buffer and 0.05 ml of 10 mM L-365,260, respectively. The assay was terminated by rapid filtration through pre-soaked Whatman GF/B filters using a Brandell Cell harvester. The filters were washed (3×3 ml) with ice-cold 50 mM Tris-HCl (pH 7.4 at 4° C.) and bound radioactivity determined by counting (1 min.) in a gamma counter.

For `O=C(O)C[C@H](NS(=O)(=O)c1ccc2ccccc2c1)C(=O)NCC12CC3CC(CC(C3)C1)C2` [Example 10, 2-Naphthalenesulphonyl-L-aspartyl 1-adamantylmethylamide], the Kb in test [1] is 63.1 nM. The Ki was 50.1 nM on CCKA and 6310 nM on CCKB receptor.

Turning to `CCCCCN(CCCCC)C(=O)[C@H](CCC(=O)O)NS(=O)(=O)c1ccc2ccccc2c1` [Example 19, 2-Naphthalenesulphonyl-L-glutamyl dipentylamide], the Kb in test [1] was 631 nM. The Ki was 1580 nM on CCKA and 3160 nM on CCKB receptor.

With `CCCCCN(CCCCC)C(=O)[C@H](CC(=O)O)NS(=O)(=O)c1ccc2ccccc2c1` [Example 1, 2-Naphthalenesulphonyl-L-aspartyl dipentylamide], in test [1], the Kb is 200 nM. Further, the Ki was 251 nM at CCKA and 7940 nM on CCKB receptor.

Regarding `CCCCCNC(=O)[C@H](CC(=O)O)NS(=O)(=O)c1ccc2ccccc2c1` [Example 5, 2-Naphthalenesulphonyl-L-aspartyl pentylamide], the Kb in test [1] was 398 nM. The Ki at CCKA was 1000 nM; on CCKB receptor, 100000 nM.

In the case of `CCCCCN(CCCCC)C(=O)[C@H](CC(=O)O)NS(=O)(=O)c1cccc2ccccc12` [Example 21, 1-Naphthalenesulphonyl-L-aspartyl dipentylamide], in test [1], the Kb was 1260 nM. The Ki on CCKA is 2000 nM; on CCKB receptor, 10000 nM.

With `CCCCCCN(CCCCCC)C(=O)[C@H](CC(=O)O)NS(=O)(=O)c1ccc2ccccc2c1` [Example 4, 2-Naphthalenesulphonyl-L-aspartyl dihexylamide], in test [1], the Kb is 158 nM. The Ki at CCKA was 126 nM; on CCKB receptor, 5010 nM.

The record behind these values is patent publication US5847125A, “Amino acid derivatives with anticholecystokinin activity” (James Black Foundation Limited, priority 1992, dated 1998).
